Among the data in patent US20230265098A1, “ALKYNE QUINAZOLINE DERIVATIVES AS INHIBITORS OF ERBB2” (EnLiven Therapeutics, Inc., priority 2020, published 2023) are GI50 and IC50 values, retold here.

Some results are limits rather than exact numbers.

Assay [1] addresses T1, BaF3 EGFR-D770-N771insSVD (Homo sapiens, UniProt P00533, DUP768-770, cells depend on it).
T1 construct: Ba/F3 cell lines were engineered to express human ERBB2 or EGFR kinases, rendering the cells IL-3 independent
Briefly: Cell viability assay (CellTiter Glo). As to conditions: 72 hours; 3000 cells per well, 96-well plates; read-out: Cell viability IC50, nM, BaF3 EGFR-D770-N771insSVD. In kind it is cell-based, mouse. An outline of the steps:
(§1)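 Murine Ba/F3 cells made IL-3-independent by retroviral human EGFR or ERBB2 were seeded at 3000 or 300 cells per well and exposed to serially diluted compound (DMSO ≤0.1%) for 72 hours at 37° C, 5% CO2. CellTiter Glo luminescence was normalised to DMSO and media-only controls and fitted to a sigmoidal dose-response.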

The target of assay [2] is T2, BaF3 EGFR-H773 V774insNPH (Homo sapiens, UniProt P00533, DUP771-773, cells depend on it).
T2 construct: Ba/F3 cell lines were engineered to express human ERBB2 or EGFR kinases, rendering the cells IL-3 independent
T2 sequence (P00533 with tags, fused parts or gaps DUP771-773): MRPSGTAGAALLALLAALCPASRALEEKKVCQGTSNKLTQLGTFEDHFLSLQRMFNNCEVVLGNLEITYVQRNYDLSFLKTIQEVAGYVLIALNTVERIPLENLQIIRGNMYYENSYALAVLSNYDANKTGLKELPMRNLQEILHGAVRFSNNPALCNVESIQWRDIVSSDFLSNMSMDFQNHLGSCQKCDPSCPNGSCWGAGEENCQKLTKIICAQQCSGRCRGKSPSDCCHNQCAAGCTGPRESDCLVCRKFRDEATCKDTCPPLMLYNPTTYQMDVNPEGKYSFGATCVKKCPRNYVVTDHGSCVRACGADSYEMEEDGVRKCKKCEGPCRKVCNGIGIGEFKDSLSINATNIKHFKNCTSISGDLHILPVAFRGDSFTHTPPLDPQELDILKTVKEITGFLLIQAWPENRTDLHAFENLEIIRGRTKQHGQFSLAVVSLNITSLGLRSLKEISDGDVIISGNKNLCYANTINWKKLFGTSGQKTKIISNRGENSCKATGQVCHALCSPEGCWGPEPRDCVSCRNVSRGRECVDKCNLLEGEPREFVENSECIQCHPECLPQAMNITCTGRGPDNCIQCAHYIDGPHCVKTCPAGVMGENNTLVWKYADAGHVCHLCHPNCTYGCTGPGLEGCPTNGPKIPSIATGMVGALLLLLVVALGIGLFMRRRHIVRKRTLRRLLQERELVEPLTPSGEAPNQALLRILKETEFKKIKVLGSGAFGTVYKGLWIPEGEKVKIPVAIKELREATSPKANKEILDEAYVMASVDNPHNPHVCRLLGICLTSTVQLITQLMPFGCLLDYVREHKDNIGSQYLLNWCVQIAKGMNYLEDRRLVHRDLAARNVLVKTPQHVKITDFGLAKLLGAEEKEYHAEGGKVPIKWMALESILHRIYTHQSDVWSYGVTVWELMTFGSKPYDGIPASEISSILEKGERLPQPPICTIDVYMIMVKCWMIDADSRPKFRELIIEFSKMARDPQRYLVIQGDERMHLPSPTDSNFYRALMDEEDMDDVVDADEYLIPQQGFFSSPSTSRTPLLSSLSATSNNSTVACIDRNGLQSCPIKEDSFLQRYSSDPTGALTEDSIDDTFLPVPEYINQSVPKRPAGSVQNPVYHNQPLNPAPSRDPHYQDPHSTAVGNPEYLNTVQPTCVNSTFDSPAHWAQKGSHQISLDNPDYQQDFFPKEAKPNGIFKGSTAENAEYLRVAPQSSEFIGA
The assay is described as follows: Cell viability assay (CellTiter Glo). In kind it is cell-based, mouse. As to conditions: 72 hours; 3000 cells per well, 96-well plates; read-out: Cell viability IC50, nM, BaF3 EGFR-H773 V774insNPH. Summed up:
as §1

Assay [3] has as its target T3, BaF3-EGFR-V769 D770insASV (Homo sapiens, UniProt P00533, DUP767-769, cells depend on it).
T3 construct: Ba/F3 cell lines were engineered to express human ERBB2 or EGFR kinases, rendering the cells IL-3 independent
The assay is described as follows: Cell viability assay (CellTiter Glo). It is filed as cell-based, mouse. As to conditions: 72 hours; 3000 cells per well, 96-well plates; read-out: Cell viability IC50, nM, BaF3-EGFR-V769 D770insASV. An outline of the steps: as §1

For assay [4], the target named is T4, phosphorylated EGFR (pEGFR) (Homo sapiens, UniProt P00533).
T4 construct: endogenous in cells; host or cells: A431
T4 sequence (P00533 25-1210): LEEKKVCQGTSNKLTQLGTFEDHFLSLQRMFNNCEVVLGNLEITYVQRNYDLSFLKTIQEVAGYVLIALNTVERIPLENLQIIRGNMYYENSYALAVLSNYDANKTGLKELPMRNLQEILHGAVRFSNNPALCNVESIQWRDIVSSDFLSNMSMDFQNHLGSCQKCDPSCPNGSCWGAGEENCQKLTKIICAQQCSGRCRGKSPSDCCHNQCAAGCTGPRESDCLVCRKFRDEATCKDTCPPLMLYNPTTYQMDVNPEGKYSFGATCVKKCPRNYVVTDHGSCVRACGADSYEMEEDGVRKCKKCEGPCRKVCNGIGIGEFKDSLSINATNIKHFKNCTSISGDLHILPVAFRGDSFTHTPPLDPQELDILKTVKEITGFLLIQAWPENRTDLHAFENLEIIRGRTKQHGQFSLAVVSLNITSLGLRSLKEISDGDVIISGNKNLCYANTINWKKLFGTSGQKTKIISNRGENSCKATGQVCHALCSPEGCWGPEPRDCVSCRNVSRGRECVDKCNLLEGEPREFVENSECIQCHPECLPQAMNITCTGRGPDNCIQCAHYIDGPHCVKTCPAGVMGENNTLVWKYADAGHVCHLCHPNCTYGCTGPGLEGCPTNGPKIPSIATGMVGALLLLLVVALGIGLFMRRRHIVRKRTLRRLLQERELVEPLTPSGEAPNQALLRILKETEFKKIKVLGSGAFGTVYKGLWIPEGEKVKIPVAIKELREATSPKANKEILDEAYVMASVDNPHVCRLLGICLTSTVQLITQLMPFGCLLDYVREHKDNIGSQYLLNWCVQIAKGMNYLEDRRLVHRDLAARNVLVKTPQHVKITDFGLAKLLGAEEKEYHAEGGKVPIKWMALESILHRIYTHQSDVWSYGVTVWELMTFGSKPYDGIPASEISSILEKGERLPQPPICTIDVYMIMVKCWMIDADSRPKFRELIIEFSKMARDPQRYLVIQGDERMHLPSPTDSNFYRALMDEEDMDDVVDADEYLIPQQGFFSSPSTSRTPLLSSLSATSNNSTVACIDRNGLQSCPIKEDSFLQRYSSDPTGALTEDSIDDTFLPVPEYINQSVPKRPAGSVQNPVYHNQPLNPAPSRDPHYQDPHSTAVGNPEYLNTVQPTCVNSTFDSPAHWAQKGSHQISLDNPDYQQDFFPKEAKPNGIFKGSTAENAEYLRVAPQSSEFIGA
Briefly: Detection of phosphorylated EGFR (pEGFR) in EGF-stimulated A431 cells (AlphaLISA). In kind it is cell-based. As to conditions: A431 cells (10% FBS), 4 hours with compound, then EGF 30 ng/mL for 10 minutes.

T3 sequence (P00533 with tags, fused parts or gaps DUP767-769): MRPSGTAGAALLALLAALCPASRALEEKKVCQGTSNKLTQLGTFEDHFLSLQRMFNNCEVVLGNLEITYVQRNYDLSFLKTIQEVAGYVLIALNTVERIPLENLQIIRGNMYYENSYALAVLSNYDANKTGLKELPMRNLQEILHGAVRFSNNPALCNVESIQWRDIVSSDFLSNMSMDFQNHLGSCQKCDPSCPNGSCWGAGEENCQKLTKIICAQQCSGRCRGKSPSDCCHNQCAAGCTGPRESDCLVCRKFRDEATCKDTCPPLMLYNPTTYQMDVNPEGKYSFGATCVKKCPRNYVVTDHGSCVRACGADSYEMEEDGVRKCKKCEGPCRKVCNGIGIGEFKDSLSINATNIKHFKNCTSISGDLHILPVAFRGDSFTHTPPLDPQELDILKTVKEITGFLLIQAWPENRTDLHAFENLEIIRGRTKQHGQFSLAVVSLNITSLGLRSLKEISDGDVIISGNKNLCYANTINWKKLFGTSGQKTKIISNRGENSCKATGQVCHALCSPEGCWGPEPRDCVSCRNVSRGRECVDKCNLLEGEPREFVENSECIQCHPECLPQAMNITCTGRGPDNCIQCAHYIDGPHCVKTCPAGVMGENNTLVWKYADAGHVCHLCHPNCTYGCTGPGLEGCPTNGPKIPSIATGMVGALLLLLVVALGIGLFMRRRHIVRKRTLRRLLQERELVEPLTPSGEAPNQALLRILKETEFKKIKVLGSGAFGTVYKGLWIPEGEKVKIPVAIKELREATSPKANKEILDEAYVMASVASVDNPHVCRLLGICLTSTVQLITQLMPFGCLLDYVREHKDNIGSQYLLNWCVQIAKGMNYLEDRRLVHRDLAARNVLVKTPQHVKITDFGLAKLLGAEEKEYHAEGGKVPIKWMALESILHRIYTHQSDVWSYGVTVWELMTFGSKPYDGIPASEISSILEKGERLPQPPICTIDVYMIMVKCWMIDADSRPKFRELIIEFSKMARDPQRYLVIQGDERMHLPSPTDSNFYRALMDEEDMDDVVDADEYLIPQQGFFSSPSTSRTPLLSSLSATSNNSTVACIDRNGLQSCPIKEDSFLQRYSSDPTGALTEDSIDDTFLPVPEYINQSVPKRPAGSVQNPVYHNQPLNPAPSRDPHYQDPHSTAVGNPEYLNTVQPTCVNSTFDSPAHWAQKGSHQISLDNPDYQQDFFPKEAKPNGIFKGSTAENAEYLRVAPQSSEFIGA
T1 sequence (P00533 with tags, fused parts or gaps DUP768-770): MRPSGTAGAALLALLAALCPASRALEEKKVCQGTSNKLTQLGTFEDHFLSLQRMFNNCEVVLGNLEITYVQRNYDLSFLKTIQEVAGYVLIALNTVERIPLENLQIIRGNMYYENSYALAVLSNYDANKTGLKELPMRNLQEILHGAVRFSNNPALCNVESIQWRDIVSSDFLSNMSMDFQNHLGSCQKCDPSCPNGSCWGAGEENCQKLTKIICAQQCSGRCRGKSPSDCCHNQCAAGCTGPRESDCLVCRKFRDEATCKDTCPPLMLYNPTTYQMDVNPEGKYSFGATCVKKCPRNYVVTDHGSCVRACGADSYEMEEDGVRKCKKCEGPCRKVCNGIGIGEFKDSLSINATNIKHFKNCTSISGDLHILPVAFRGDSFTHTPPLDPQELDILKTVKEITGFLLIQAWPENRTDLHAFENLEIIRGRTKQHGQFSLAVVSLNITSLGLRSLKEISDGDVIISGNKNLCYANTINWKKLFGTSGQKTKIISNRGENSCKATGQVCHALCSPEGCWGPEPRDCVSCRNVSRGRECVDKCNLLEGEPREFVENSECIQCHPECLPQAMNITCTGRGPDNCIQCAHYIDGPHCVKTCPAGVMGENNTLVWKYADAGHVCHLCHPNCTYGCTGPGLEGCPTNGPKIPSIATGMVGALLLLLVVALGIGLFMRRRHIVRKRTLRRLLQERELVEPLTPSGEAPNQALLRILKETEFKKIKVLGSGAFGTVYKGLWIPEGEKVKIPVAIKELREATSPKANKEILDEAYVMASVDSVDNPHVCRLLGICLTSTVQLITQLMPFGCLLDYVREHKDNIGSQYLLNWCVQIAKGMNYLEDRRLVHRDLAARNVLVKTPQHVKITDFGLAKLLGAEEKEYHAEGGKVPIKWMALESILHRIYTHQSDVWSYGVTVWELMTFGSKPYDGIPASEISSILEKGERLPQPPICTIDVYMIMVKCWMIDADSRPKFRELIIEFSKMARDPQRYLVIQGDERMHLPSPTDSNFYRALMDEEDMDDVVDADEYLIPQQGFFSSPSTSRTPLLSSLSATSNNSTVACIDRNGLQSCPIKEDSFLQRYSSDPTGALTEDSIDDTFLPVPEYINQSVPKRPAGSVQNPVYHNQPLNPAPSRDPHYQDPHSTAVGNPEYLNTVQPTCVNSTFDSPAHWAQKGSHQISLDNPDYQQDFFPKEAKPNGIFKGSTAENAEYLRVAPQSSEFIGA

For `CC#CC(=O)Nc1ccc2ncnc(Nc3ccc(Oc4ccn5ncnc5c4)c(C)c3)c2c1` [Compound 1, N-[4-[(3-methyl-4-[[1,2,4]triazolo[1,5-a]pyridin-7-yloxy]phenyl)amino]quinazolin-6-yl]but-2-ynamide], the GI50 is 775 nM in assay [1], more than 1000 nM in assay [2] and 861 nM in assay [3].
Regarding `CC#CC(=O)Nc1cc2c(Nc3ccc(Oc4ccn5ncnc5c4)c(C)c3)ncnc2cc1OCCN(C)C` [Compound 150, N-[7-[2-(dimethylamino)ethoxy]-4-[(3-methyl-4-[[1,2,4]triazolo[1,5-a]pyridin-7-yloxy]phenyl)amino]quinazolin-6-yl]but-2-ynamide], the IC50 in assay [4] was 233 nM.
